Measured values reported in US20100254948A1, “PROCESS FOR THE PREPARATION OF GAMMA-AMINO BUTYRIC ACID (GABA) BY THE USE OF LACTIC ACID BACTERIA (LAB) ON AGRO-AND FOOD-INDUSTRY SURPLUS” (Giuliani S.p.A, priority 2007, published 2010).
“Also recorded” adds a separate entry of the source.

How the values were obtained:
Type in all cases: cell-based, human
involucrin (IVL) = experiment: Real time PCR of involucrin (IVL) in FT-skin model; conditions: 8, 24, 48 and 72 hours, repeated application for 3 days
Text: (§1) 2) The ‘full thickness skin model’ (FT) (Phenion GmbH & Co., Frankfurt am Main, Germany) is a multi-layer human skin model consisting of keratinocytes and fibroblasts stemming from the same donor. After a culture period of five weeks, the ‘full thickness’ was fully developed and comprised epidermis, basal membrane and derma. The model was characterized with respect to the expression of fundamental markers of differentiation at the epidermis level (cytokeratin 10, philagrin, transglutaminase and involucrin), at the derma-epidermis junctions (laminin and collagen IV) and at dermal level (elastin fibronectin). The diameter of the model FT is of 1.3 cm.
(§2) In this study the following genes were employed:
(§3) The technique employs Taqman probes for detecting the fluorescent signal and it is very sensitive, consisting in the amplification and quantification of a specific sequence of nucleic acids. The detection of the PCR product occurs in real time. The quantification of DNA, cDNA or RNA is carried out by determining the cycle in which he PCR product can be detected for the first time, thus not at the moment when the reaction has become saturated. The quantification of the product occurs through the detection of fluorescence measured in each cycle; the strength of the signal is directly proportional to the amount of the amplified product. […]
(§4) Each biological sample is evaluated in triple tests. […]

[1] = test system: GCLC (glutamate-cysteinyl ligase); experiment: Real time PCR of glutamate-cysteinyl ligase (GCLC) in FT-skin model; conditions: 1% Biomass or GABA 1 mm dose, from 8 h
Text: as §1, §2, §3, §4

[2] = test system: hyaluronate synthetase (HAS1); experiment: Real time PCR of hyaluronate synthetase (HAS1) in FT-skin model
Text: as §1, §2, §3, §4

philagrin (FLG) = experiment: Real time PCR of philagrin (FLG) in FT-skin model
Text: as §1, §2, §3, §4

[3] = test system: GSS (glutatione synthetase); experiment: Real time PCR of glutatione synthetase (GSS) in FT-skin model; conditions: 24 hours, expression values very low and meaningless
Text: as §1, §2, §3, §4

- GCLC gene expression (RT-PCR) [1]: No gene modulation
- hyaluronate synthetase (HAS) expression with respect to control sample ([2]; 24 hours, 1% Biomass or GABA 1 mm dose, high standard deviation): increased
- hyaluronate synthetase (HAS) expression ([2]; 48 hours, GABA 1 mm dose): increased
- GSS gene modulation (RT-PCR) [3]: just as a tendency
SMILES: NCCCC(=O)O [GABA, gamma-aminobutyric acid]
- involucrin gene modulation (involucrin (IVL)): no significative modulation; also recorded: unmodulated
- philagrin gene over-expression (philagrin (FLG); 24 hours): evident
- philagrin gene over-expression (philagrin (FLG); 72 hours (repeated application for 3 days)): significative increase
